Data as given in US20140350049A1, “METHODS AND PHARMACEUTICAL COMPOSITIONS FOR THE TREATMENT OF DARIER DISEASE” (INSERM (INSTITUT NATIONAL DE LA SANTE ET DE LA RECHERCHE …, priority 2011, published 2014).

How the values were obtained:
Assay type in all cases: cell-based, human
[1] = tested on: Darier keratinocytes (DK); assay: ER stress response (eIF2α and IRE1 phosphorylation, Western-Blot) in Darier keratinocytes; settings: for TG-induced eIF2α phosphorylation: DK pre-treated 24 h with PBA 5 mM or Miglustat 500 μM
Protocol: (§1) Cell Culture. Keratinocytes were grown in 0.06 mM CaCl2 EpiLife medium (Invitrogen) to 60-80% confluence and then incubated in 1.2 mM CaCl2 EpiLife medium for 4 hours to induce formation of cell-cell contacts.
(§2) Treatments with drugs. For ER stress induction, keratinocytes grown in high Ca^2+ (1.2 mM) medium were incubated with thapsigargin (TG, Sigma) at 1 μM for different time periods. For inhibition of SERCA pump in NK, keratinocytes were pretreated with 100 nM of TG for 30 min in low Ca^2+ (0.06 mM) medium. Medium was removed, and cells were incubated in high Ca^2+ (1.2 mM) medium for an additional 4 hours to induce the formation of cell-cell contacts.
(§3) Western-Blot. Keratinocytes were lysed in buffer containing 50 mM Tris (pH8), 120 mM NaCl, 0.5% NP-40, Complete™ protease inhibitors cocktail (Roche) and phosphatase inhibitor cocktail 2 (Sigma) for 30 minutes on ice and pelleted by centrifugation. The supernatant was collected for the quantification of protein amount by the Bradford assay. Equal amounts of soluble protein were added to Laemmli buffer (62.5 mM Tris HCl, pH 6.8, 5% ®-mercaptoethanol, 2% SDS, 10% glycerol, and 0.002% bromophenol blue). Samples were separated by SDS-PAGE and transferred onto Hybond-C extra membrane (GE Healthcare). β-actin immunodetection was used as a loading control. Blots were developed by chemiluminescence (ECL Advance, GE Healthcare or SuperSignal West Dura, Pierce).

[2] = tested on: Darier keratinocytes (DK); assay: ER morphology in chaperone-treated Darier keratinocytes (immunofluorescence); settings: DK pre-treated 24 h with PBA 5 mM or Miglustat 500 μM
Protocol: as §2
(§4) Immunofluorescence. Keratinocytes were cultured on coverslips, fixed with 4% paraformaldehyde for 30 minutes at room temperature, and permeabilized with 0.2% TritonX-100 in PBS for 10 minutes. After blocking with 1% fetal bovine serum in PBS, cells were incubated with primary antibodies at 4° C. overnight. Subsequently, cells were incubated with the appropriate Alexa-conjugated secondary antibody at room temperature for 1 hour. […]
(§5) Quantification of intracellular compartment volumes and co-localization. For volume quantifications, all Z-series reconstructions were imaged with a pinhole of 1 Airy Unit with an optimal Z-step. […] Each isosurfaced was selected and the volume statistic recorded. Quantification of the co-localization signals was performed using the Metamorph (Molecular Devices) software. In a single optical section, the surface of the red signal (E-cadherin) that merges with a green signal (Calnexin) was calculated.

[3] = tested on: Darier keratinocytes (DK); assay: Adherens junction formation in chaperone-treated Darier keratinocytes (immunofluorescence); settings: for F-actin network organisation / cell shape (polygonal phenotype, characteristic of cell-to-cell adhesion) / staining of AJ components (E-cadherin and catenins) at the plasma membrane: DK pre-treated 24 h with PBA 5 mM or Miglustat 500 μM; for staining of AJ components (E-cadherin and catenins) at the plasma membrane: then 1.2 mM Ca2+
Protocol: (§6) Cell Culture. Keratinocytes were grown in 0.06 mM CaCl2 EpiLife medium (Invitrogen) to 60-80% confluence and then incubated in 1.2 mM CaCl2 EpiLife medium for 4 hours to induce formation of cell-cell contacts. […] Treatments with drugs. For ER stress induction, keratinocytes grown in high Ca^2+ (1.2 mM) medium were incubated with thapsigargin (TG, Sigma) at 1 μM for different time periods. For inhibition of SERCA pump in NK, keratinocytes were pretreated with 100 nM of TG for 30 min in low Ca^2+ (0.06 mM) medium. Medium was removed, and cells were incubated in high Ca^2+ (1.2 mM) medium for an additional 4 hours to induce the formation of cell-cell contacts. […] Immunofluorescence. Keratinocytes were cultured on coverslips, fixed with 4% paraformaldehyde for 30 minutes at room temperature, and permeabilized with 0.2% TritonX-100 in PBS for 10 minutes. After blocking with 1% fetal bovine serum in PBS, cells were incubated with primary antibodies at 4° C. overnight. Subsequently, cells were incubated with the appropriate Alexa-conjugated secondary antibody at room temperature for 1 hour. For actin staining, cells were incubated with phalloidin-TRITC at room temperature for 1 hour. Lastly, coverslips were mounted on glass slides using Vectashield Hard set (Vector laboratories) and examined using a Zeiss LSM 710 confocal microscope with a 40 Plan-Apochromat objective (1.3 oil) or a 63 Plan-Apochromat objective (1.4 oil), together with a 2× zoom.

[4] = tested on: Darier keratinocytes (DK); assay: E-cadherin and SERCA2 expression in chaperone-treated Darier keratinocytes; settings: DK treated with PBA or Miglustat
Protocol: as §3, with “Treatments with drugs. For ER stress induction, keratinocytes grown in high Ca^2+ (1.2 mM) medium were incubated with thapsigargin (TG, Sigma) at 1 μM for different time periods. For inhibition of SERCA pump in NK, keratinocytes were pretreated with 100 nM of TG for 30 min in low Ca^2+ (0.06 mM) medium. Medium was removed, and cells were incubated in high Ca^2+ (1.2 mM) medium for an additional 4 hours to induce the formation of cell-cell contacts. […] Western-Blot.” for “Western-Blot.”

[5] = tested on: Darier keratinocytes (DK); assay: XBP1 mRNA splicing (RT-PCR) after TG treatment; settings: DK compared to NK, TG 1 μM
Protocol: as §2
RT-PCR. RNA was isolated from keratinocytes using TRIzol (Invitrogen) and reverse transcribed using hexamer primers and Moloney murine leukemia virus RT. PCR amplification was performed.

[6] = tested on: normal keratinocytes (NK); assay: ER stress response (eIF2α phosphorylation, Western-Blot) in normal keratinocytes; settings: TG 1 μM, high Ca2+ (1.2 mM) medium
Protocol: as §1, §2
as §3, with “Blots were developed by chemiluminescence (ECL Advance, GE Healthcare or SuperSignal West Dura, Pierce).” left out

[7] = tested on: normal keratinocytes (NK); assay: Adherens junction formation in TG-pretreated normal keratinocytes (immunofluorescence); settings: TG-pretreated NK (100 nM, 30 min) cultured in 1.2 mM Ca2+ for 4 hours
Protocol: as §6, with “Lastly, coverslips were mounted on glass slides using Vectashield Hard set (Vector laboratories) and examined using a Zeiss LSM 710 confocal microscope with a 40 Plan-Apochromat objective (1.3 oil) or a 63 Plan-Apochromat objective (1.4 oil), together with a 2× zoom.” left out

[8] = tested on: normal keratinocytes (NK); assay: ER volume and cell spreading in TG-treated normal keratinocytes (immunofluorescence, volume quantification); settings: TG-treated NK compared to untreated NK
Protocol: as §2, §4, §5

[9] = tested on: normal keratinocytes (NK); assay: E-cadherin retention in the ER (co-localization with calnexin) in TG-treated normal keratinocytes
Protocol: as §2, §4, §5

Row | Compound | TG-induced eIF2α phosphorylation [1] | ER expansion / perinuclear condensation of the ER [2] | F-actin network organisation [3] | cell shape (polygonal phenotype, characteristic of cell-to-cell adhesion) [3] | staining of AJ components (E-cadherin and catenins) at the plasma membrane [3] | plasma membrane localization of E-cadherin ([3]; DK, lower concentration (100 μM)) | E-cadherin expression [4] | SERCA2 expression [4] | effect on E-cadherin localization ([3]; DK, 500 μM, 24 h pre-treatment) | increase of phospho-eIF2α after exposure to thapsigargin ([1]; DK, TG 1 μM, high Ca2+ (1.2 mM) medium) | IRE1 phosphorylation after exposure to thapsigargin ([1]; DK, TG 1 μM, extent higher than in NK) | spliced, active form of XBP1 mRNA after TG treatment [5] | increase of phospho-eIF2α after exposure to thapsigargin [6] [fold] | adherens junction (E-cadherin, catenins, F-actin) organisation [7] | number of confluent cells per microscopy field [8] | ER volume ([8]; TG 100 nM 30 min) | E-cadherin intracellular surface overlapping with the calnexin positive compartment [9]
1 | CCCCN1C[C@H](O)[C@@H](O)[C@H](O)[C@H]1CO [Miglustat, 1,5-(butylimino)-1,5-dideoxy-D-glucitol] | Neither TG-induced eIF2α phosphorylation nor ER expansion were reduced | Neither TG-induced eIF2α phosphorylation nor ER expansion were reduced | polymerization of the F-actin network | all cells present a polygonal phenotype | a narrow, intense, continuous pericellular staining of all AJ components at the plasma membrane | increased plasma membrane localization of E-cadherin only in a limited number of cells | neither PBA nor Miglustat increased | neither PBA nor Miglustat increased | – | – | – | – | – | – | – | – | –
2 | CCCCN1C[C@H](O)[C@@H](O)[C@@H](O)[C@H]1CO [NB-DGJ] | – | – | – | – | – | – | – | – | had not effect | – | – | – | – | – | – | – | –
3 | O=C(O)CCCc1ccccc1 [PBA, 4-phenylbutyric acid] | decreased | restored perinuclear condensation of the ER | cortical bundles of F-actin parallel and closer to the cell membrane | acquired a pronounced polygonal shape | a linear, sharp and more intense pericellular staining of E-cadherin and catenins | – | neither PBA nor Miglustat increased | neither PBA nor Miglustat increased | – | – | – | – | – | – | – | – | –
4 | C/C=C(/C)C(=O)O[C@H]1C(C)=C2[C@H]([C@@H]1OC(=O)CCCCCCC)[C@@](C)(OC(C)=O)C[C@H](OC(=O)CCC)[C@@]1(O)[C@H]2OC(=O)[C@@]1(C)O [TG, thapsigargin] | – | – | – | – | – | – | – | – | – | 2- to 3 fold | increased | increased in DK compared to NK | 1.5 | AJ abnormalities similar to those in DK | always smaller | two-fold increase | significant E-cadherin retention in the ER
